Results from patent publication US7330794B2, “Water monitoring system using bivalve mollusks” (Aqueous Solutions, Inc., priority 2000, dated 2008).

Tested on: bivalve mollusks
Test: Water screening with bivalve mollusks: shell gape and Degree of Alarm (DOA) on toxicant exposure
Format: in vivo
Method: Further calibration of the system is performed after one or more mollusk chambers are properly installed. The digital circuitry or computer 39 then monitors the gape of the mollusk during approximately the first three days after installation. From the gape values derived during this period, the computer derives a natural maximum gape value for the individual mollusk. Subsequent calculations based on output from the mollusk chamber 15 are based on the percentage of gape, i.e., the percentage of the maximum gape output value that the presently detected gape output value represents.
When the system 3 contains a number of mollusk chambers 15, the individual mollusk percentage gape data for all of the mollusks of the system is totaled, and the average percentage gape value calculated periodically per sampling interval by computer 38. This mean data value Gi is the variable used as the mollusk output data for determining if toxicants are present in the water being screened.
In the present specification, Gi means the current average mollusk gape data, Gi−i means the most recent earlier mollusk output value, Gi−2 the next earlier mollusk output variable, etc. The oldest of the gape values is Gi−n+1. Preferably, the set of data values Gi−n+1 to Gi are stored in a FIFO (first-in, first-out) stack data structure in the computer doing the analysis. The stack acts as a shift register, shifting earlier data values as the new data value Gi is acquired. Preferably the value of n is 30, and the data values G are acquired every half-second.
According to an aspect of the invention, the variance over time of the gape values is one of the best statistical indicators of the pumping of the mollusk. By the term variance, what is meant is a determination of the variability of the gape values from a mean value, which may be determined or expressed using a variety of functions. Particularly preferred, however, is the classical calculation of variance as:
In a basic method for toxicant detection, DOA is calculated continuously using the formula DOA=(V·|R|)/M wherein V is the mean variance in gape over a recent period of time, preferably 30 seconds, R is the mean regression of the gape over the period (regression herein meaning the slope of the best-fit line through the data values of the time period). M may be the traveling mean as defined above, or may be the mean gape taken over another longer period, preferably about one hour.
An implementation of this method is shown by the graphs of FIGS. 7 to 10. Water being screened by a system as described previously was loaded with sulphuric acid, resulting in a drop in pH as shown in the graph of FIG. 7.
When the variance is below this threshold value, a first, less sensitive function of the gape data values is used to calculate the DOA value. Such a function might be a linear calculation such as DOA=(1−Gi)*10 which would yield a DOA value between 0 and 10, with 10 corresponding to the mollusk completely closing its shell and strongly indicating presence of toxicant.
When the variance value is greater than or equal to the threshold value, the DOA value may be calculated by a different function which amplifies the calculation from the closing of the shell during the period of high variance. Particularly preferred is a more sensitive high-variance function: DOA=f(Gi)+V/K
An implementation of such a DOA method using a Logistic calculation, with a variance factor added for variances over 50, is illustrated by the graphs of FIGS. 12 to 16.
In this example, a system as in Example 3 was used, only the toxicant introduced was copper (as aqueous CuSO4), as shown in FIG. 17.

SMILES: O=S(=O)(O)O [sulphuric acid]
- DOA (Degree of Alarm) values, spike (sulphuric acid, DOA=(V·|R|)/M, appears before 200 minutes, FIG. 10): greater than 100
- percentage gape at the variance spike (sulphuric acid, variance spikes shortly before 200 minutes, FIG. 9): ≤ 40%
- average percentage gape of the mollusks (water loaded with sulphuric acid (pH drop), shortly after 200 minutes, FIG. 8): less than 10 % of the normal maximum

SMILES: [Cl-].[Na+] [chloride, NaCl]
- DOA output (chloride, Logistic calculation with variance factor for variances over 50, at 0.5 hours, chloride concentration still relatively low, FIG. 16): greater than 5
- raw gape data, decreasing over time (gradually increasing concentration of chloride (aqueous NaCl), FIG. 13): less than 40 % of normal maximum gape

SMILES: O=S(=O)([O-])[O-].[Cu+2] [copper, CuSO4]
- gape when DOA exceeded 8 (copper (aqueous CuSO4), between 0.5 and 1.0 hours): 50%
- DOA values (copper (aqueous CuSO4), system as in Example 3, between 0.5 and 1.0 hours, copper concentration still relatively low, FIG. 21): exceed 8 out of a possible 10
